From US20260174778A1, “SULFONAMIDE COMPOUND, AND PREPARATION METHOD THEREFOR AND USE THEREOF” (SHANGHAI HENLIUS BIOTECH, INC., priority 2023, published 2026)

Test system: acetylation level of H3K23 in ZR-75-1 cells
Test: Effect on histone acetilation in ER-positive breast cancer cells (Western blotting)
Type: cell-based, human
Conditions: 5 days of incubation, from 5 μM, Western blot (FIG. 1)
Protocol: Test Example 4: Assay for Effects of Compounds on Histone Acetylation in Estrogen Receptor-Positive Breast Cancer Cells
Assay Method: Western Blotting Method (Immunoblotting Assay)
The effects of the test compounds on the acetylation level of H3K23 in ZR-75-1 cells (Nanjing Cobioer, CBP60402) were assayed. • 1. On day 1, the cells were plated at 400,000 cells/well (2 mL/well) and cultured overnight in an incubator at 37° C. with 5% CO2. • 2. On day 2, compounds were added starting at 5 μM, with a 10-fold serial dilution across a total of 3 concentration gradients, and DMSO was added to the negative control wells. • 3. On day 6, after 5 days of incubation with compounds, protein samples were collected: An ice box, pre-cooled PBS (4° C.), a cell lysis buffer RIPA (Beyotime, P0013B), and a protease inhibitor (100x) (Thermo Scientific™, 87786) were prepared. Then, 120 μL of the cell lysis buffer was added to each well. The mixture was placed on ice for about 15 min. […] Protein quantification by BCA method (Beyotime, P0009) • Standards (8 concentrations) were prepared, and the samples and the standards were added to a 96-well plate. […] The absorbance was then measured using a microplate reader. […]
The next day, the PVDF membrane was taken out and washed (8 min×3) with TBST (with 0.5% Tween 20). […] After the washing, a luminescence solution (Tanon, 180-506) was added for exposure. […]

Row | Structure (SMILES) | acetylation level of H3K23
1 | COc1ccc2c(c1S(=O)(=O)Nc1noc3cc(Cn4cccn4)c(F)c(OC)c13)OCCO2 [Compound 28, N-(6-((1H-Pyrazol-1-yl)methyl)-5-fluoro-4-methoxybenzo[d]isoxazol-3-yl)-6-methoxy-2,3-dihydrobenzo[b][1,4]dioxine-5-sulfonamide] | significantly reduce the acetylation level of H3K23
2 | COc1ccccc1S(=O)(=O)Nc1noc2cc(Cn3cccn3)cc(OC)c12 [PF-8144, reference compound] | significantly reduce the acetylation level of H3K23
